# According to patent EP1658776A1, “Method for producing live food water organisms in the presence of an antibacterial” (priority 2004, dated 2006):
# Marks after values point to notes of the source that are not given here.
# Experiments:
# [1] = tested on: Vibrio sp.; test: Vibrio reduction by silver combined with berberine during hatching (Example 4, Figure 2); format: cell-based; details: 0.1 mg Ag per liter, with or without thiosulphate, no berberine
# Description: GSL-cysts were incubated at 2g cysts /l, following standard procedures, i.e.: salinity of 25 g/l, temperature of 30°C. Continuous illumination and air bubbling was provided. Silver nitrate, thiosulphate and berberine were added in different concentrations to the hatching medium. After 24 hours, the hatching percentage was calculated and samples of the hatching medium were taken for determination of Vibrio sp. on TCBS.
# [2] = tested on: Artemia cysts; test: Hatching percentage of Artemia cysts sprayed with silver nitrate / thiosulphate (Example 1); format: in vivo, Artemia (GSL-strain); details: 24h incubation
# Description: (§1) 1000 g commercially available dry cysts from Great Salt Lake (GSL-strain) were sprayed with 20 ml solution to which 2.43g or 2.02g AgNO3 is added and another 1000 g cysts were sprayed with 20 ml to which 14.20g or 11.81g thiosulphate (Na2S2O3.5(H2O)) is added (in a ratio of 4 mol thiosulphate to 1 mol AgNO3) to obtain respectively 1.50 or 1.25 mg Ag/l in the hatching medium, after incubation of 2g treated cysts therein. The cysts were gently mixed for 15-30 minutes while spraying. Both fractions were mixed together in a ratio of (1:1). The cysts were vacuum packed and stored at different temperatures (4°C, 20°C and 30°C). Cysts from the same batch were kept as a control. After 4 weeks they were incubated at 2g (treated) cysts /l, following standard procedures, i.e.: salinity of 25 g/I, temperature of 30°C. Continuous illumination and air bubbling was provided. After 24 hours of incubation, samples of the hatching medium were taken for determination of the total count on Marine agar (MA) and Vibrio sp. on TCBS (specific growth medium for Vibrio sp.). The hatching percentage (percentage of cysts that hatch on the total of full cysts) of the cysts was calculated. Tabel 1: Hatching percentage (HP) of cysts, number of colony forming units (cfu) per ml of hatching medium on MA and on TCBS after 24h incubation of Artemia cysts of control cysts and cysts with different amounts of AgNO3 (expressed as mg Ag/l hatching medium). Each value is the average of three counts.
# [3] = tested on: mussel; details: natural seawater; cited from earlier work
# [4] = tested on: pathogenic Vibrio sp.; test: Vibrio in shrimp tanks fed Artemia nauplii enriched in the presence of Ag; format: in vivo; details: Artemia nauplii enriched in the presence of Ag fed for 14 days to larval shrimp; versus control enrichment
# [5] = tested on: crab larvae; details: natural seawater; cited from earlier work
# [6] = tested on: Artemia cysts; test: Hatching percentage of treated cysts after storage at different temperatures (Example 2, Figures 1a/1b); format: in vivo, Artemia (GSL-strain); details: AgNO3 (and thiosulphate) applied on cysts; 1 to 8 weeks of storage at 20° C or more
# Description: 1000 g commercially available dry cysts (GSL-strain) were sprayed with a 20 ml solution to which 2.43g AgNO3 and another 1000g cysts were sprayed 20 ml solution to which 14.20g thiosulphate (Na2S2O3.5(H2O)) was added. The cysts were gently mixed for 15 - 30 minutes while spraying. Both fractions of cysts were mixed together in a ratio of [1:1]. The cysts were vacuum packed and stored at different temperatures (4°C, 20°C and 30°C) for 1 to 8 weeks. At different time intervals (1 week, 2 weeks, 4 weeks and 8 weeks) they were incubated at 2g (treated) cysts /l following standard procedures, i.e.: salinity of 25 g/l, temperature of 30°C. Continuous illumination and air bubbling was provided. After 24 hours, the hatching percentage (percentage of cysts that hatch on the total of full cysts) was calculated. These values were compared with a former batch of cysts on which 1.4 mg/l of the bactericidal isothiazolin derivative comprising 5-chloro-2-methyl-4-isothiazolin-3-one and 2-methyl-4-isothiazolin-3-one was applied.
# [7] = tested on: Vibrio species; test: Vibrio counts on TCBS in hatching medium, silver with or without thiosulphate (Example 3); format: cell-based, Vibrio sp.; details: 24 hours; for Vibrio counts on TCBS (cfu/ml) With thiosulphate: silver nitrate:thiosulphate 1:4
# Description: (§2) GSL-cysts were incubated at 2g cysts /l, following standard procedures, i.e.: salinity of 25 g/l, temperature of 30°C. Continuous illumination and air bubbling was provided. Different concentrations of silver nitrate were added to the hatching medium. Thiosulphate was added to compare its effect on the hatching of Artemia and reduction of Vibrio sp. When thiosulphate was added, the molecular ratio of silver nitrate to thiosulphate was (1:4). After 24 hours, samples of the hatching medium were taken for determination of Vibrio sp. on TCBS and hatching percentage was calculated. Table 2: Effect of thiosulphate in combination with Ag, on hatching percentage of Artemia and on the amount of Vibrio species in the hatching medium
# [8] = tested on: Artemia; test: Hatching percentage with silver in hatching medium, with or without thiosulphate (Example 3); format: in vivo, Artemia (GSL-cysts); details: for Hatching percentage (%) Without thiosulphate / Hatching percentage (%) With thiosulphate: 24 hours; for Hatching percentage (%) With thiosulphate: silver nitrate:thiosulphate 1:4
# Description: as §2
# [9] = tested on: Vibrio sp.; test: Vibrio count on TCBS in hatching medium (Example 1); format: cell-based; details: 24h incubation
# Description: as §1
# [10] = 1.25 mg/l Ag (AgNO3 + thiosulphate on cysts), storage 20°C
# [11] = 1.25 mg/l Ag (AgNO3 + thiosulphate on cysts), storage 30°C
# [12] = 1.50 mg/l Ag (AgNO3 + thiosulphate on cysts), storage 4°C
# [13] = 1.50 mg/l Ag (AgNO3 + thiosulphate on cysts), storage 20°C
# [14] = 1.50 mg/l Ag (AgNO3 + thiosulphate on cysts), storage 30°C
smiles,measurement,setting,value
"O=[N+]([O-])[O-].[Ag+] [Ag, silver nitrate]",decrease of Vibrio sp. in the hatching medium,[1],usually not sufficient to decrease the Vibrio sp.
same,HP (%),[2]; [10],80.3%
same,HP (%),[2]; [11],82.6%
same,HP (%),"[2]; 1.25 mg/l Ag in hatching medium (AgNO3 + thiosulphate 1:4 mol on cysts), cysts stored 4 weeks at 4°C",84.5%
same,HP (%),[2]; [12],81.4%
same,HP (%),[2]; [13],82.2%
same,HP (%),[2]; [14],81.2%
same,toxicity levels (EC50),[3],0.014 mg Ag/l
same,pathogenic Vibrio sp. in the shrimp tanks,[4],a reduction in pathogenic Vibrio sp. was noticed
same,toxicity levels (EC50),[5],0.055 mg Ag/l
same,Hatching percentage,[6],did not decrease
same,Vibrio counts on TCBS (cfu/ml) Without thiosulphate,[7]; Ag 0.1 mg/l as silver nitrate,7.96 x 10^6 cfu/ml
same,Vibrio counts on TCBS (cfu/ml) With thiosulphate,[7]; Ag 0.1 mg/l,1.47 x 10^5 cfu/ml
same,Vibrio counts on TCBS (cfu/ml) Without thiosulphate,[7]; Ag 0.25 mg/l as silver nitrate,1.79 x 10^5 cfu/ml
same,Vibrio counts on TCBS (cfu/ml) With thiosulphate,[7]; Ag 0.25 mg/l,1.70 x 10^4 cfu/ml
same,Vibrio counts on TCBS (cfu/ml) Without thiosulphate,[7]; Ag 0.5 mg/l as silver nitrate,3.48 x 10^4 cfu/ml
same,Vibrio counts on TCBS (cfu/ml) With thiosulphate,[7]; Ag 0.5 mg/l,<3.00 x 10^2 cfu/ml
same,Vibrio counts on TCBS (cfu/ml) Without thiosulphate,[7]; Ag 0.75 mg/l as silver nitrate,6.23 x 10^2 cfu/ml
same,Vibrio counts on TCBS (cfu/ml) Without thiosulphate,[7]; Ag 1.0 mg/l as silver nitrate,4.80 x 10^2 cfu/ml
same,Vibrio counts on TCBS (cfu/ml) With thiosulphate,[7]; Ag 1.0 mg/l,<3.00 x 10^2 cfu/ml
same,Vibrio counts on TCBS (cfu/ml) Without thiosulphate,[7]; Ag 1.25 mg/l as silver nitrate,<3.00 x 10^2 cfu/ml
same,Vibrio counts on TCBS (cfu/ml) Without thiosulphate,[7]; Ag 1.5 mg/l as silver nitrate,<3.00 x 10^2 cfu/ml
same,Vibrio counts on TCBS (cfu/ml) With thiosulphate,[7]; Ag 1.5 mg/l,<3.00 x 10^2 cfu/ml
same,Vibrio counts on TCBS (cfu/ml) Without thiosulphate,[7]; Ag 1.75 mg/l as silver nitrate,<3.00 x 10^2 cfu/ml
same,Vibrio counts on TCBS (cfu/ml) Without thiosulphate,[7]; Ag 2.0 mg/l as silver nitrate,<3.00 x 10^2 cfu/ml
same,Vibrio counts on TCBS (cfu/ml) With thiosulphate,[7]; Ag 2.0 mg/l,<3.00 x 10^2 cfu/ml
same,Vibrio counts on TCBS (cfu/ml) With thiosulphate,[7]; Ag 2.5 mg/l,<3.00 x 10^2 cfu/ml
same,Vibrio counts on TCBS (cfu/ml) With thiosulphate,[7]; Ag 5.0 mg/l,<3.00 x 10^2 cfu/ml
same,Vibrio counts on TCBS (cfu/ml) With thiosulphate,[7]; Ag 10.0 mg/l,<3.00 x 10^2 cfu/ml
same,Hatching percentage (%) Without thiosulphate,[8]; Ag 0.1 mg/l as silver nitrate,77.1%
same,Hatching percentage (%) With thiosulphate,[8]; Ag 0.1 mg/l,79.9%
same,Hatching percentage (%) Without thiosulphate,[8]; Ag 0.25 mg/l as silver nitrate,76.6%
same,Hatching percentage (%) With thiosulphate,[8]; Ag 0.25 mg/l,78.6%
same,Hatching percentage (%) Without thiosulphate,[8]; Ag 0.5 mg/l as silver nitrate,78.3%
same,Hatching percentage (%) With thiosulphate,[8]; Ag 0.5 mg/l,76.0%
same,Hatching percentage (%) Without thiosulphate,[8]; Ag 0.75 mg/l as silver nitrate,73.9%
same,Hatching percentage (%) Without thiosulphate,[8]; Ag 1.0 mg/l as silver nitrate,72.5%
same,Hatching percentage (%) With thiosulphate,[8]; Ag 1.0 mg/l,74.4%
same,Hatching percentage (%) Without thiosulphate,[8]; Ag 1.25 mg/l as silver nitrate,75.5%
same,Hatching percentage (%) Without thiosulphate,[8]; Ag 1.5 mg/l as silver nitrate,71.1%
same,Hatching percentage (%) With thiosulphate,[8]; Ag 1.5 mg/l,76.3%
same,Hatching percentage (%) Without thiosulphate,"[8]; Ag 1.75 mg/l as silver nitrate, hatching is delayed (maximal HP not reached after 24 h)",69.9* %
same,Hatching percentage (%) Without thiosulphate,"[8]; Ag 2.0 mg/l as silver nitrate, hatching is delayed (maximal HP not reached after 24 h)",65.0* %
same,Hatching percentage (%) With thiosulphate,[8]; Ag 2.0 mg/l,74.3%
same,Hatching percentage (%) Without thiosulphate,"[8]; Ag 2.5 mg/l as silver nitrate, hatching is delayed (maximal HP not reached after 24 h)",50.0* %
same,Hatching percentage (%) With thiosulphate,[8]; Ag 2.5 mg/l,75.6%
same,Hatching percentage (%) Without thiosulphate,"[8]; Ag 5.0 mg/l as silver nitrate, hatching is delayed (maximal HP not reached after 24 h)",28.0* %
same,Hatching percentage (%) With thiosulphate,[8]; Ag 5.0 mg/l,77.6%
same,Hatching percentage (%) Without thiosulphate,[8]; Ag 10.0 mg/l as silver nitrate,0%
same,Hatching percentage (%) With thiosulphate,[8]; Ag 10.0 mg/l,77.1%
same,hatching of the Artemia naupllii,"[8]; more than 2 mg/l till at least 10 mg/l Ag, thiosulphate 4 mol per 1 mol AgNO3",still not affected
same,hatching of Artemia nauplii,"[8]; very high concentrations (> 10 mg/l), without thiosulphate",do not hatch at all
same,TCBS (cfu/ml),"[9]; 1.25 mg/l Ag (AgNO3 + thiosulphate on cysts), storage 4°C",<3.00 x 10^2 cfu/ml
same,TCBS (cfu/ml),[9]; [10],5.66 x 10^3 cfu/ml
same,TCBS (cfu/ml),[9]; [11],<3.00 x 10^2 cfu/ml
same,TCBS (cfu/ml),[9]; [12],<3.00 x 10^2 cfu/ml
same,TCBS (cfu/ml),[9]; [13],<3.00 x 10^2 cfu/ml
same,TCBS (cfu/ml),[9]; [14],<3.00 x 10^2 cfu/ml
